Results: the NIST ThermoML archive (doi:10.1016/j.jct.2017.10.012)

Conditions: Liquid, Vibrating tube method

CCCC[N+](C)(C)C.O=S(=O)([N-]S(=O)(=O)C(F)(F)F)C(F)(F)F [butyltrimethylammonium bis(trifluoromethylsulfonyl)imide]
Conditions | mass density [kg/m3]
278.15 K, 100 kPa | 1411.9
278.15 K, 101.33 kPa | 1411.6
278.15 K, 1000 kPa | 1412.6
278.15 K, 10000 kPa | 1419
278.15 K, 20000 kPa | 1425.6
278.15 K, 40000 kPa | 1438.3
278.15 K, 60000 kPa | 1450
278.15 K, 80000 kPa | 1460.7
278.15 K, 100000 kPa | 1470.6
278.15 K, 120000 kPa | 1480.6
279.15 K, 101.33 kPa | 1410.6
280.15 K, 101.33 kPa | 1409.6
281.15 K, 101.33 kPa | 1408.6
282.15 K, 101.33 kPa | 1407.7
283.15 K, 101.33 kPa | 1406.7
284.15 K, 101.33 kPa | 1405.7
285.15 K, 101.33 kPa | 1404.8
286.15 K, 101.33 kPa | 1403.8
287.15 K, 101.33 kPa | 1402.9
288.15 K, 101.33 kPa | 1402
289.15 K, 101.33 kPa | 1401
290.15 K, 101.33 kPa | 1400.1
291.15 K, 101.33 kPa | 1399.2
292.15 K, 101.33 kPa | 1398.3
293.15 K, 101.33 kPa | 1397.4
294.15 K, 101.33 kPa | 1396.5
295.15 K, 101.33 kPa | 1395.6
296.15 K, 101.33 kPa | 1394.7
297.15 K, 101.33 kPa | 1393.8
298.15 K, 100 kPa | 1394
298.15 K, 101.33 kPa | 1392.9
298.15 K, 1000 kPa | 1394.7
298.15 K, 10000 kPa | 1401.2
298.15 K, 20000 kPa | 1408.2
298.15 K, 40000 kPa | 1421.2
298.15 K, 60000 kPa | 1433.1
298.15 K, 80000 kPa | 1444.1
298.15 K, 100000 kPa | 1454.5
298.15 K, 120000 kPa | 1464.3
299.15 K, 101.33 kPa | 1392
300.15 K, 101.33 kPa | 1391.1
301.15 K, 101.33 kPa | 1390.2
302.15 K, 101.33 kPa | 1389.4
303.15 K, 101.33 kPa | 1388.5
304.15 K, 101.33 kPa | 1387.6
305.15 K, 101.33 kPa | 1386.7
306.15 K, 101.33 kPa | 1385.8
307.15 K, 101.33 kPa | 1385
308.15 K, 101.33 kPa | 1384.1
309.15 K, 101.33 kPa | 1383.2
310.15 K, 101.33 kPa | 1382.4
311.15 K, 101.33 kPa | 1381.5
312.15 K, 101.33 kPa | 1380.6
313.15 K, 100 kPa | 1380.9
313.15 K, 101.33 kPa | 1379.7
313.15 K, 1000 kPa | 1381.6
313.15 K, 10000 kPa | 1388.4
313.15 K, 20000 kPa | 1395.7
313.15 K, 40000 kPa | 1409.2
313.15 K, 60000 kPa | 1421.7
313.15 K, 80000 kPa | 1433
313.15 K, 100000 kPa | 1443.7
313.15 K, 120000 kPa | 1453.7
314.15 K, 101.33 kPa | 1378.9
315.15 K, 101.33 kPa | 1378
316.15 K, 101.33 kPa | 1377.1
317.15 K, 101.33 kPa | 1376.3
318.15 K, 101.33 kPa | 1375.4
319.15 K, 101.33 kPa | 1374.5
320.15 K, 101.33 kPa | 1373.7
321.15 K, 101.33 kPa | 1372.8
322.15 K, 101.33 kPa | 1372
323.15 K, 101.33 kPa | 1371.1
324.15 K, 101.33 kPa | 1370.3
325.15 K, 101.33 kPa | 1369.4
326.15 K, 101.33 kPa | 1368.6
327.15 K, 101.33 kPa | 1367.7
328.15 K, 101.33 kPa | 1366.8
329.15 K, 101.33 kPa | 1366
330.15 K, 101.33 kPa | 1365.1
331.15 K, 101.33 kPa | 1364.3
332.15 K, 101.33 kPa | 1363.4
333.15 K, 100 kPa | 1363.4
333.15 K, 101.33 kPa | 1362.6
333.15 K, 1000 kPa | 1364.2
333.15 K, 10000 kPa | 1371.6
333.15 K, 20000 kPa | 1379.3
333.15 K, 40000 kPa | 1393.4
333.15 K, 60000 kPa | 1406.4
333.15 K, 80000 kPa | 1418.3
333.15 K, 100000 kPa | 1429.5
333.15 K, 120000 kPa | 1439.8
334.15 K, 101.33 kPa | 1361.7
335.15 K, 101.33 kPa | 1360.9
336.15 K, 101.33 kPa | 1360
337.15 K, 101.33 kPa | 1359.2
338.15 K, 101.33 kPa | 1358.3
339.15 K, 101.33 kPa | 1357.5
340.15 K, 101.33 kPa | 1356.7
341.15 K, 101.33 kPa | 1355.9
342.15 K, 101.33 kPa | 1355
343.15 K, 101.33 kPa | 1354.1
344.15 K, 101.33 kPa | 1353.3
345.15 K, 101.33 kPa | 1352.6
346.15 K, 101.33 kPa | 1351.6
347.15 K, 101.33 kPa | 1350.8
348.15 K, 100 kPa | 1350.3
348.15 K, 101.33 kPa | 1349.9
348.15 K, 1000 kPa | 1351
348.15 K, 10000 kPa | 1358.7
348.15 K, 20000 kPa | 1366.7
348.15 K, 40000 kPa | 1381.5
348.15 K, 60000 kPa | 1394.9
348.15 K, 80000 kPa | 1407.1
348.15 K, 100000 kPa | 1418.6
348.15 K, 120000 kPa | 1429.3
349.15 K, 101.33 kPa | 1349.2
350.15 K, 101.33 kPa | 1348.3
351.15 K, 101.33 kPa | 1347.4
352.15 K, 101.33 kPa | 1346.6
353.15 K, 101.33 kPa | 1345.7
354.15 K, 101.33 kPa | 1344.9
355.15 K, 101.33 kPa | 1344
356.15 K, 101.33 kPa | 1343.2
357.15 K, 101.33 kPa | 1342.3
358.15 K, 101.33 kPa | 1341.5
359.15 K, 101.33 kPa | 1340.6
360.15 K, 101.33 kPa | 1339.8
361.15 K, 101.33 kPa | 1338.9
362.15 K, 101.33 kPa | 1338
363.15 K, 101.33 kPa | 1337
364.15 K, 101.33 kPa | 1336.1
365.15 K, 101.33 kPa | 1335.2
366.15 K, 101.33 kPa | 1334.3
367.15 K, 101.33 kPa | 1333.4
368.15 K, 101.33 kPa | 1332.5
369.15 K, 101.33 kPa | 1331.7
370.15 K, 101.33 kPa | 1330.9
371.15 K, 101.33 kPa | 1330.1
372.15 K, 101.33 kPa | 1329.2
373.15 K, 100 kPa | 1329.5
373.15 K, 101.33 kPa | 1328.4
373.15 K, 1000 kPa | 1329.7
373.15 K, 10000 kPa | 1338
373.15 K, 20000 kPa | 1346.6
373.15 K, 40000 kPa | 1362.3
373.15 K, 60000 kPa | 1376.5
373.15 K, 80000 kPa | 1389.5
373.15 K, 100000 kPa | 1401.5
373.15 K, 120000 kPa | 1412.7
398.15 K, 100 kPa | 1309.1
398.15 K, 1000 kPa | 1308.9
398.15 K, 10000 kPa | 1317.8
398.15 K, 20000 kPa | 1327
398.15 K, 40000 kPa | 1343.7
398.15 K, 60000 kPa | 1358.6
398.15 K, 80000 kPa | 1372.3
398.15 K, 100000 kPa | 1384.8
398.15 K, 120000 kPa | 1396.6
